Measurements reported in PMC6792352, “Limited Chemical Structural Diversity Found to Modulate Thyroid Hormone Receptor in the Tox21 Chemical Library” (Environmental Health Perspectives, 2019).
Where a name gives a salt, the structure may show the parent alone. Positions of bridges follow the written chain, without caps; N, C: chain ends. Residues, ends and D or L forms follow the SMILES beside them.

Assay: in vitro
Conditions: rat, gh3-tre-luc cells, AC50 (uM) modified / 1000

Point of comparison: `FC(F)(F)c1cccc(C2=CCN(CCc3ccc4ccncc4c3)CC2)c1` [SSR150106], CC50 at 24 h 76.9 µM. Against it:
- O=P(O)(O)OCC(O)CO (centres unmarked) [Dipotassium glycerophosphate] — not separable, > 50 µM
- COC(=O)Nc1nc2ccc(C(=O)c3ccccc3)cc2[nH]1 [Mebendazole] — 230-fold lower, 0.337 µM
- CC1=NN(c2ccccc2)C(=O)C1 [1-Phenyl-3-methyl-5-pyrazolone] — higher, > 90 µM
- O[C@@H](c1cc(C(F)(F)F)nc2c(C(F)(F)F)cccc12)[C@H]1CCCCN1 [Mefloquine hydrochloride] — 15-fold lower, 5.17 µM
- CCC(=O)Oc1ccc2c(c1)CC[C@@H]1[C@@H]2CC[C@]2(C)[C@@H](OC(=O)CC)CC[C@@H]12 [Estradiol dipropionate] — not separable, > 50 µM
- CC(=O)OCC=C(C)C [3,3-Dimethylallyl acetate] — not separable, > 60 µM
- CCCCCCCCCCCCCCCC(=O)OCCC1CCN(CCCN2c3ccccc3Sc3ccc(S(=O)(=O)N(C)C)cc32)CC1 [Pipothiazine palmitate] — not separable, > 50 µM
- Cc1cnc(C2=NC(=O)C(C)(C(C)C)N2)c(C(=O)O)c1 (centres unmarked) [Imazapic] — higher, > 90 µM
- COc1cc(C[C@@H](C)N)c(OC)cc1Br [R-(-)-2,5-Dimethoxy-4-bromoamphetamine hydrochloride] — within 1.5-fold, 56.1 µM
- CC(C)CO [2-Methyl-1-propanol] — higher, > 90 µM
- CCN(CC)C(=O)C(C)Oc1cccc2ccccc12 (centres unmarked) [Napropamide] — higher, > 90 µM
- CCCCCCCCCCCCCCCCC [Heptadecane] — higher, > 90 µM
- CCCCCCCCCCCCCCCCO [1-Hexadecanol] — higher, > 90 µM
- O=C(O)/C=C/C(O)c1ccc(Cl)cc1 (centres unmarked) [Sodium (2E)-4-(4-chlorophenyl)-4-hydroxybut-2-enoate hydrate] — not separable, > 50 µM
- Nc1ccc(N)c2c1C(=O)c1ccccc1C2=O [1,4-Diaminoanthraquinone] — within 1.5-fold, 55.3 µM
- CCCC[C@H](CC)COC(=O)/C=C/c1ccc(OC)cc1 [Octinoxate] — higher, > 90 µM
- CCCCCCCCCCCCS [1-Dodecanethiol] — higher, > 90 µM
- c1ccc(C2CC2)c(OCC2=NCCN2)c1 [Cirazoline] — not separable, > 50 µM
- CCCCCCCCCCCCCC[n+]1ccccc1 [Tetradecylpyridinium bromide] — 12-fold lower, 6.51 µM
- ClCc1cccnc1 [3-(Chloromethyl)pyridine hydrochloride] — higher, > 90 µM
- C=C(C)C(=O)O [Methacrylic acid] — higher, > 90 µM
- O=Cc1ccc(C(=O)O)cc1 [4-Carboxybenzaldehyde] — higher, > 90 µM
- CCCCCCCCCCCCCCCCCC#N [Octadecanenitrile] — higher, > 90 µM
- C=CCc1ccc(OC)cc1 [Estragole] — higher, > 90 µM
- O=Cc1cccc([N+](=O)[O-])c1 [3-Nitrobenzaldehyde] — higher, > 90 µM
- CC(C)c1cccc(C(C)C)c1 [1,3-Diisopropylbenzene] — higher, > 90 µM
- O=C(Nc1ccccc1)c1cc([N+](=O)[O-])ccc1Cl [2-Chloro-5-nitro-N-phenylbenzamide] — 1.5-fold lower, 49.9 µM
- CNC1CCCN(c2c(F)cc3c(=O)c(C(=O)O)cn(C4CC4)c3c2OC)C1 (centres unmarked) [Balofloxacin] — not separable, > 50 µM
- CS(=O)(=O)OC[C@H](O)[C@@H](O)COS(C)(=O)=O [Treosulfan] — not separable, > 50 µM
- Cc1ncc([N+](=O)[O-])n1CC(O)CCl (centres unmarked) [Ornidazole] — not separable, > 20 µM
- OCCN(CCO)c1cccc(Cl)c1 [2,2'-(3-Chlorophenylimino)diethanol] — higher, > 90 µM
- CCCCCCCCCC(=O)OCC [Ethyl decanoate] — higher, > 90 µM
- Nc1ccc(Cl)c(Cl)c1 [3,4-Dichloroaniline] — higher, > 90 µM
- C[N+](C)(C)CC(O)CC(=O)[O-] (centres unmarked) [Carnitine hydrochloride] — not separable, > 50 µM
- Cc1ccc2oc(=O)ccc2c1 [6-Methyl coumarin] — higher, > 90 µM
- CC(C)=CC(=O)O [3,3-Dimethylacrylic acid] — higher, > 90 µM
- NC(=O)c1nc(-c2cccc(-c3cc(F)ccc3OCC(F)(F)C(F)(F)F)c2)n[nH]1 [MK-274] — within 1.5-fold, 53.5 µM
- CCOC(=O)OC(C)OC1=C(C(=O)Nc2ccccn2)N(C)S(=O)(=O)c2ccccc21 (centres unmarked) [Ampiroxicam] — not separable, > 50 µM
- Cc1cn([C@H]2C[C@H](F)[C@@H](CO)O2)c(=O)[nH]c1=O [Alovudine] — not separable, > 50 µM
- CC(C)(c1ccccc1)c1cc(-n2nc3ccccc3n2)c(O)c(C(C)(C)c2ccccc2)c1 [2-(2H-Benzotriazol-2-yl)-4,6-bis(1-methyl-1-phenylethyl)phenol] — not separable, > 50 µM
- CC(C)=CCC[C@@](C)(O)[C@H]1CC=C(C)CC1 [Bisabolol] — not separable, > 50 µM
- NCCCC[C@H](NC(=O)[C@@H]1CCCN1C(=O)[C@@H]1CSSC[C@H](N)C(=O)N[C@@H](Cc2ccccc2)C(=O)N[C@@H](Cc2ccccc2)C(=O)N[C@@H](CCC(N)=O)C(=O)N[C@@H](CC(N)=O)C(=O)N1)C(=O)NCC(N)=O [Felypressin] (H-CFFQNCPKG-NH2; disulfide 1-6) — not separable, > 50 µM
- N[C@@H](Cc1c[nH]cn1)C(=O)O [L-Histidine hydrochloride] — not separable, > 50 µM
- CC(N)CCCC(C)(C)O (centres unmarked) [Heptaminol hydrochloride] — not separable, > 50 µM
- CN(C)CCCN1c2ccccc2Sc2ccc(C(F)(F)F)cc21 [Triflupromazine hydrochloride] — 8.5-fold lower, 9.02 µM
- CCCCc1ccc(O)cc1 [4-Butylphenol] — within 1.5-fold, 92.9 µM
- CN(C)CCC=C1c2ccccc2C(C)(C)c2ccccc21 [Melitracen hydrochloride] — 3.9-fold lower, 19.6 µM
- CN(C)C(=O)NC1(c2ccccc2)CCN(CC[C@@]2(c3ccc(F)c(F)c3)CN(C(=O)c3ccccc3)CCO2)CC1 [SR144190] — within 1.5-fold, 55.6 µM
- O=c1oc2cc(O)ccc2s1 [Thioxolone] — not separable, > 50 µM
- CC[N+](C)(CC)CCOC(=O)C1c2ccccc2Oc2ccccc21 [Methantheline bromide] — not separable, > 50 µM
- CCN(CC)CCN1C(=O)CN=C(c2ccccc2F)c2cc(Cl)ccc21 [Flurazepam] — 3.3-fold lower, 23.1 µM
- NC(=O)[C@H]1O[C@@H](O)[C@H](O)[C@@H](O)[C@@H]1O [Glucuronamide] — not separable, > 50 µM
- C[C@@H]1CC(=O)NN=C1c1ccc(NN=C(C#N)C#N)cc1 [Levosimendan] — 5.2-fold lower, 14.8 µM
- Cc1cccc(C)c1NC(=O)c1ccccc1C(=O)O [Ftaxilide] — not separable, > 50 µM
- Cc1ccc2nc(-c3ccc(N)cc3)sc2c1S(=O)(=O)O — not separable, > 50 µM
- O=C(/C=C/c1ccccc1)OCc1ccccc1 [Benzyl cinnamate] — higher, > 90 µM
- NC(=O)C(Cl)(Cl)Cl [2,2,2-Trichloroacetamide] — higher, > 90 µM
- COC(=O)CCCCC(=O)OC [Dimethyl adipate] — higher, > 90 µM
- CC(=O)Nc1ccc(CC(=O)O)cc1 [4-Acetylaminophenylacetic acid] — higher, > 90 µM
- COC(C)(C)C [Methyl tert-butyl ether] — higher, > 90 µM
- CCCCC(=O)O [Pentanoic acid] — higher, > 90 µM
- O=[N+]([O-])c1c(Cl)c(Cl)c(Cl)c(Cl)c1Cl [Pentachloronitrobenzene] — higher, > 90 µM
- Oc1ccc(Sc2ccc(O)cc2)cc1 [4,4'-Thiodiphenol] — 1.6-fold lower, 47.9 µM
- OC(Cn1cncn1)(c1ccc(F)cc1)c1ccccc1F (centres unmarked) [Flutriafol] — higher, > 90 µM
- CC1CCc2nccnc21 (centres unmarked) [5H-5-Methyl-6,7-dihydrocyclopenta[b]pyrazine] — higher, > 90 µM
- CCCCOc1cc(C(=O)OCCN(CC)CC)ccc1N [Benoxinate hydrochloride] — not separable, > 20 µM
- CC(C)(N)C#N [2-Amino-2-methylpropionitrile] — higher, > 90 µM
- O=C1NCCN1CCO [Hydroxyethyl imidazolidinone] — higher, > 100 µM
- C[C@H](N)[C@H](O)c1cccc(O)c1 [Metaraminol bitartrate] — not separable, > 20 µM
- CCOC(=O)[C@H](CS)NCCN[C@@H](CS)C(=O)OCC [Bicisate dihydrochloride] — not separable, > 50 µM
- Cc1cccnc1 [3-Methylpyridine] — higher, > 90 µM
- Cc1cc(C)c(NC(=O)C[C@H](CC(=O)O)c2cccc3ccccc23)c(C(=O)N2CCC3(CCCC3)CC2)c1 [Itriglumide sodium] — 2.9-fold lower, 26.9 µM

Same assay, conditions: rat, gh3-tre-luc cells, AC50 (uM) modified / 1000, Tox21_110001=Tox21_112402; viability, 1 nM T3 present, 24 h

In the case of `CC(=O)OO` [Peracetic acid], the CC50 at 24 h is reported as over 50 µM.

Same assay, conditions: rat, gh3-tre-luc cells, AC50 (uM) modified / 1000, Tox21_110001=Tox21_200042; viability, 1 nM T3 present, 24 h

`C=C(Cl)CSC(=S)N(CC)CC` [Sulfallate] showed a CC50 at 24 h of over 100 µM.

Same assay, conditions: rat, gh3-tre-luc cells, AC50 (uM) modified / 1000, Tox21_110001=Tox21_200910; viability, 1 nM T3 present, 24 h

In the case of `Oc1c(Cl)c(Cl)cc(Cl)c1Cl` [2,3,5,6-Tetrachlorophenol], the CC50 at 24 h is reported as 65.8 µM.

Same assay, conditions: rat, gh3-tre-luc cells, AC50 (uM) modified / 1000, Tox21_110001=Tox21_201157; viability, 1 nM T3 present, 24 h

For `CC(C)CC(C)N` (centres unmarked) [1,3-Dimethylbutylamine], the CC50 at 24 h was over 90 µM.

Same assay, conditions: rat, gh3-tre-luc cells, AC50 (uM) modified / 1000, Tox21_110001=Tox21_201755; viability, 1 nM T3 present, 24 h

In the case of `Cc1cccc(N=Nc2ccc(N(C)C)cc2)c1` [3'-Methyl-4-dimethylaminoazobenzene], the CC50 at 24 h is reported as 72.8 µM.

Same assay, conditions: rat, gh3-tre-luc cells, AC50 (uM) modified / 1000, Tox21_110001=Tox21_202199; viability, 1 nM T3 present, 24 h

Work on `CN(C)NC(=O)CCC(=O)O` [Daminozide] yielded a CC50 at 24 h of over 90 µM.

Same assay, conditions: rat, gh3-tre-luc cells, AC50 (uM) modified / 1000, Tox21_110001=Tox21_202592; viability, 1 nM T3 present, 24 h

`Cc1ccc2cc3c(ccc4ccccc43)c3c2c1CC3` [3-Methylcholanthrene] showed a CC50 at 24 h of over 50 µM.

Same assay, conditions: rat, gh3-tre-luc cells, AC50 (uM) modified / 1000, Tox21_110001=Tox21_300592; viability, 1 nM T3 present, 24 h

`ClC1(Cl)C2(Cl)C3(Cl)C4(Cl)C(Cl)(Cl)C5(Cl)C3(Cl)C1(Cl)C5(Cl)C24Cl` (centres unmarked) [Mirex] showed a CC50 at 24 h of over 90 µM.

Same assay, conditions: rat, gh3-tre-luc cells, AC50 (uM) modified / 1000, Tox21_110001=Tox21_301423; viability, 1 nM T3 present, 24 h

With `CNC(=O)Oc1ccc(N(C)C)c(C)c1` [Aminocarb] the CC50 at 24 h was over 90 µM.

Same assay, conditions: rat, gh3-tre-luc cells, AC50 (uM) modified / 1000, Tox21_110001=Tox21_303022; viability, 1 nM T3 present, 24 h

Work on `Cc1cccc(N=Nc2ccc(N(C)C)cc2)c1` [3'-Methyl-4-dimethylaminoazobenzene] yielded a CC50 at 24 h of over 90 µM.
